Data taken from patent publication US20250388605A1, “HETEROBIFUNCTIONAL COMPOUNDS AND METHODS OF TREATING DISEASE” (Halda Therapeutics OpCo, Inc., priority 2022, published 2025).

Tests used:
[1] = tested on: T-Rex 293 cell line SC3 cells having increased expression of androgen receptor protein due to exposure to doxycycline; assay: Cellular growth inhibition, T-Rex 293 SC3 cells with doxycycline (increased androgen receptor expression), CellTiter-Glo; assay type: cell-based; details: T-Rex 293 SC3 cells with 10 ng/mL doxycycline (increased androgen receptor expression), 72 hours, CellTiter-Glo 2.0
Experimental: (§1) The following types of cells were prepared for this experiment: (i) a T-Rex 293 cell line having increased expression of androgen receptor protein due to exposure to doxycycline and (ii) a T-Rex 293 cell line lacking increased expression of androgen receptor protein. Ability of the test compounds to inhibit proliferation of the foregoing cell types was evaluated according to the procedures set forth below.
(§2) The doxycycline-inducible androgen receptor protein expressing cell line was established using the following protocol: T-Rex 293 cells were purchased from Invitrogen (Cat #R71007) and transfected using Lipofectamine 2000 with the wild-type androgen receptor protein sequence cloned into the pcDNA4/TO vector. Transfected cells were selected using 400 μg/mL Zeocin (Invitrogen Cat #R25001). Following selection, single clones were raised and maintained in Dulbecco's Modified Eagle Medium (DMEM) supplemented with 10% w/w Tetracycline-free fetal bovine serum (FBS) and 250 μg/mL Zeocin. Clones were analyzed for expression of androgen receptor protein in the presence and absence of 10 ng/mL doxycycline (Sigma Cat #D9891), and a single doxycycline-inducible clone (hereinafter “SC3”) was selected for use in downstream assays.
(§3) The SC3 cells were seeded on poly-D-lysine coated, black clear-bottom 384-well plates at 2500/well, in 25 μL Phenol Red Free Dulbecco's Modified Eagle Medium (DMEM) supplemented with 10% w/w charcoal-dextran treated fetal bovine serum (FBS) and 1% w/w pen-strep, with or without 10 ng/mL doxycycline. Pen-Strep is a commercially available mixture of penicillin G and streptomycin, which is used in mammalian cell culture media to prevent bacterial contamination. Phenol Red Free Dulbecco's Modified Eagle Medium (DMEM) supplemented with 10% w/w charcoal-dextran treated fetal bovine serum (FBS) and 1% w/w pen-strep, with or without 10 ng/mL doxycycline is herein referred to as Treatment Medium. Following seeding of cells in the plates, the plates were spun at 300×g for 30 seconds, then equilibrated to room temperature for 30 minutes, and then deposited in a humidified tissue culture incubator maintained at 37° C. with 5% CO2.
(§4) At 24 hours after seeding of the cells, dilutions of test compound were prepared in DMSO and dissolved in Treatment Medium, to achieve a final DMSO concentration of 0.5% w/w, thereby providing the Test Compound Solution. A 25 μL aliquot of the Test Compound Solution was added to cells in the well plates. An equal volume of a solution containing DMSO and Treatment Medium was used as a negative control. Following treatment of cells with Test Compound Solution or said equal volume of a solution containing DMSO and Treatment Medium, the plates were spun at 300×g for 30 seconds, and then left in an incubator for 72 hours.
(§5) At the end of the treatment duration, cell viability was quantified with CellTiter-Glo 2.0 reagent (Promega Cat #G9243). For this purpose, plates were equilibrated to room temperature for 30 minutes, and then 25 μL of CellTiter-Glo 2.0 reagent was added to cells in the plate wells. Plates were then agitated on a shaker for two minutes at 500 rpm and subsequently incubated at room temperature for 10 minutes. Following incubation, the plates were spun at 3000×g for 30 seconds, then sealed with an optical adhesive cover, and luminescence readings were measured with an EnVision Plate Reader.
(§6) Data was normalized using zero luminescence for baseline. A four-parameter non-linear regression curve fit was applied to dose-response data in GraphPad Prism data analysis software to determine the half-maximal growth inhibitory concentration (GI50) for each test compound.

[2] = tested on: T-Rex 293 cell line SC3 cells lacking increased expression of androgen receptor protein; assay: Cellular growth inhibition, T-Rex 293 SC3 cells without doxycycline (no increased androgen receptor expression), CellTiter-Glo; assay type: cell-based; details: T-Rex 293 SC3 cells not exposed to doxycycline (no increased androgen receptor expression), 72 hours
Experimental: as §1, §2, §3, §4, §5, §6

[3] = tested on: VCaP cells; assay: Cellular growth inhibition assay for VCaP cells, CellTiter-Glo; assay type: cell-based, human; details: 72 hours
Experimental: VCaP cells were purchased from American Type Cell Culture (ATCC Cat #CRL2876) and then seeded on poly-D-lysine coated, black clear-bottom 384-well plates at 5000/well in 25 μL Dulbecco's Modified Eagle Medium (DMEM) supplemented with 10% w/w Fetal bovine serum (FBS) and 1% w/w Pen-Strep. Pen-Strep is a commercially available mixture of penicillin G and streptomycin, which is used in mammalian cell culture media to prevent bacterial contamination. Dulbecco's Modified Eagle Medium (DMEM) supplemented with 10% w/w fetal bovine serum (FBS) and 1% w/w Pen-Strep is herein referred to as Treatment Medium. Following seeding of cells in the plates, the plates were spun at 300×g for 30 seconds, then equilibrated to room temperature for 30 minutes, and then deposited in a humidified tissue culture incubator maintained at 37° C. with 5% CO2.
as §4, §5, §6

| GI50 ([3]; Homo sapiens) | GI50 [3] | Structure (SMILES) | GI50 [1] | GI50 [2] |
| --- | --- | --- | --- | --- |
| < 500 nM | – | CCS(=O)(=O)c1ccc(Oc2cccc(OCCOC3CCN(c4ccc(C(=O)N[C@H]5C(C)(C)[C@H](Oc6ccc(C#N)c(Cl)c6)C5(C)C)nn4)CC3)c2F)c(-c2cn(C)c(=O)c3[nH]ccc23)c1 [Compound I-169] | < 500 nM | < 500 nM |
| – | > 3000 nM | CCS(=O)(=O)Nc1ccc(Oc2cccc(N(C)C3CC(C4CCN(c5ncc(C(=O)N[C@H]6C(C)(C)[C@H](Oc7ccc(C#N)c(Cl)c7)C6(C)C)cn5)CC4)C3)c2)c(-c2cn(C)c(=O)c3[nH]ccc23)c1 (stereo partly drawn) [Compound I-172] | < 500 nM | > 3000 nM |
| < 500 nM | – | CCS(=O)(=O)Nc1ccc(Oc2cccc(NCCN(C)C3CCN(c4ncc(C(=O)N[C@H]5C(C)(C)[C@H](Oc6ccc(C#N)c(Cl)c6)C5(C)C)cn4)CC3)c2)c(-c2cn(C)c(=O)c3[nH]ccc23)c1 [Compound I-173] | 500 to 1500 nM | > 3000 nM |
| < 500 nM | – | CCS(=O)(=O)Cc1ccc(Oc2cccc(N3CC(N4CCN(c5ncc(C(=O)N[C@H]6C(C)(C)[C@H](Oc7ccc(C#N)c(Cl)c7)C6(C)C)cn5)CC4)C3)c2F)c(-c2cn(C)c(=O)c3[nH]ccc23)c1 [Compound I-174] | < 500 nM | > 3000 nM |
| < 500 nM | – | CCS(=O)(=O)c1ccc(Oc2cccc(CCCOC3CCN(c4ncc(C(=O)N[C@H]5C(C)(C)[C@H](Oc6ccc(C#N)c(Cl)c6)C5(C)C)cn4)CC3)c2F)c(-c2cn(C)c(=O)c3[nH]ccc23)c1 [Compound I-176] | < 500 nM | < 500 nM |
| – | < 500 nM | CCS(=O)(=O)c1ccc(OCC(OCCOC2CCN(c3ncc(C(=O)N[C@H]4C(C)(C)[C@H](Oc5ccc(C#N)c(Cl)c5)C4(C)C)cn3)CC2)C2CC2)c(-c2cn(C)c(=O)c3[nH]ccc23)c1 (stereo partly drawn) [Compound I-177] | < 500 nM | < 500 nM |
| – | < 500 nM | CCS(=O)(=O)Nc1ccc(Oc2cccc(N(CCN(C)C3CCN(c4ncc(C(=O)N[C@H]5C(C)(C)[C@H](Oc6ccc(C#N)c(Cl)c6)C5(C)C)cn4)CC3)C(C)C)c2F)c(-c2cn(C)c(=O)c3[nH]ccc23)c1 [Compound I-183] | < 500 nM | < 500 nM |
| < 500 nM | – | CCS(=O)(=O)Cc1ccc(Oc2cccc(CCCOC3CCN(c4ncc(C(=O)N[C@H]5C(C)(C)[C@H](Oc6ccc(C#N)c(Cl)c6)C5(C)C)cn4)CC3)c2F)c(-c2cn(C)c(=O)c3[nH]ccc23)c1 [Compound I-184] | < 500 nM | < 500 nM |
| < 500 nM | – | CCS(=O)(=O)Nc1ccc(Oc2cccc(OCCOC3CCN(c4ccc(C(=O)N[C@H]5C(C)(C)[C@H](Oc6ccc(C#N)c(Cl)c6)C5(C)C)cn4)CC3)c2F)c(-c2cn(C)c(=O)c3[nH]ccc23)c1 [Compound I-188] | < 500 nM | < 500 nM |
| – | < 500 nM | Cn1cc(-c2cc(C(C)(C)O)ccc2Oc2ccc(N3CC4(CCN(c5cnc(C(=O)N[C@H]6C(C)(C)[C@H](Oc7ccc(C#N)c(Cl)c7)C6(C)C)cn5)CC4)C3)cc2)c2cc[nH]c2c1=O [Compound I-352] | < 500 nM | > 3000 nM |
| – | 1500 to 3000 nM | Cn1cc(-c2cc(C(C)(C)O)ccc2Oc2ccc(N3CC4(CCN(c5ncc(C(=O)N[C@H]6C(C)(C)[C@H](Oc7ccc(C#N)c(Cl)c7)C6(C)C)cn5)CC4)C3)cc2)c2cc[nH]c2c1=O [Compound I-353] | < 500 nM | 1500 to 3000 nM |

The next lines start with the compound.

| Structure (SMILES) | GI50 ([3]; Homo sapiens) | GI50 [3] | GI50 [1] | GI50 [2] |
| --- | --- | --- | --- | --- |
| CCS(=O)(=O)Nc1ccc(Oc2cccc(CCCOC3CCN(c4ncc(C(=O)N[C@H]5C(C)(C)[C@H](Oc6ccc(C#N)c(Cl)c6)C5(C)C)cn4)CC3)c2F)c(-c2cn(C)c(=O)c3[nH]ccc23)c1 [Compound I-154] | < 500 nM | – | < 500 nM | < 500 nM |
| CCS(=O)(=O)Nc1ccc(Oc2cccc(OCCCC3CCN(c4ncc(C(=O)N[C@H]5C(C)(C)[C@H](Oc6ccc(C#N)c(Cl)c6)C5(C)C)cn4)CC3)c2F)c(-c2cn(C)c(=O)c3[nH]ccc23)c1 [Compound I-155] | < 500 nM | – | < 500 nM | > 3000 nM |
| CCS(=O)(=O)Cc1ccc(Oc2cccc(CCOC3CCN(c4ncc(C(=O)N[C@H]5C(C)(C)[C@H](Oc6ccc(C#N)c(Cl)c6)C5(C)C)cn4)CC3)c2)c(-c2cn(C)c(=O)c3[nH]ccc23)c1 [Compound I-159] | – | < 500 nM | < 500 nM | < 500 nM |
| CCS(=O)(=O)Cc1ccc(Oc2cccc(CCOC3CCN(c4ncc(C(=O)N[C@H]5C(C)(C)[C@H](Oc6ccc(C#N)c(Cl)c6)C5(C)C)cn4)CC3)c2F)c(-c2cn(C)c(=O)c3[nH]ccc23)c1 [Compound I-160] | – | < 500 nM | < 500 nM | < 500 nM |
| CCS(=O)(=O)Nc1cc(F)c(Oc2cccc(OCCOC3CCN(c4ncc(C(=O)N[C@H]5C(C)(C)[C@H](Oc6ccc(C#N)c(Cl)c6)C5(C)C)cn4)CC3)c2)c(-c2cn(C)c(=O)c3[nH]ccc23)c1 [Compound I-161] | < 500 nM | – | < 500 nM | > 3000 nM |
| CCS(=O)(=O)Nc1ccc(Oc2cccc(OCCOC3CCN(c4ccc(C(=O)N[C@H]5C(C)(C)[C@H](Oc6ccc(C#N)c(Cl)c6)C5(C)C)nn4)CC3)c2F)c(-c2cn(C)c(=O)c3[nH]ccc23)c1 [Compound I-162] | < 500 nM | – | < 500 nM | > 3000 nM |
| Cn1cc(-c2cc(NS(=O)(=O)C(F)(F)F)ccc2Oc2cccc(OCCOC3CCN(c4ncc(C(=O)N[C@H]5C(C)(C)[C@H](Oc6ccc(C#N)c(Cl)c6)C5(C)C)cn4)CC3)c2F)c2cc[nH]c2c1=O [Compound I-163, N-[3-(3-chloro-4-cyano-phenoxy)-2,2,4,4-tetramethyl-cyclobutyl]-2-[4-[2-[2-fluoro-3-[2-(6-methyl-7-oxo-1H-pyrrolo[2,3-c]pyridin-4-yl)-4-(trifluoromethylsulfonylamino)phenoxy]phenoxy]ethoxy]-1-piperidyl]pyrimidine-5-carboxamide] | 500 to 1500 nM | – | < 500 nM | > 3000 nM |
| CCS(=O)(=O)Cc1ccc(Oc2cccc(OCCOC3CCN(c4ccc(C(=O)N[C@H]5C(C)(C)[C@H](Oc6ccc(C#N)c(Cl)c6)C5(C)C)cn4)CC3)c2F)c(-c2cn(C)c(=O)c3[nH]ccc23)c1 [Compound I-166] | < 500 nM | – | < 500 nM | < 500 nM |
| CCS(=O)(=O)Cc1ccc(Oc2cccc(OCCOC3CCN(c4ccc(C(=O)N[C@H]5C(C)(C)[C@H](Oc6ccc(C#N)c(Cl)c6)C5(C)C)nn4)CC3)c2F)c(-c2cn(C)c(=O)c3[nH]ccc23)c1 [Compound I-167] | < 500 nM | – | < 500 nM | > 3000 nM |
| CCS(=O)(=O)Cc1ccc(Oc2cccc(OCCCC3CCN(c4ncc(C(=O)N[C@H]5C(C)(C)[C@H](Oc6ccc(C#N)c(Cl)c6)C5(C)C)cn4)CC3)c2F)c(-c2cn(C)c(=O)c3[nH]ccc23)c1 [Compound I-168] | < 500 nM | – | < 500 nM | > 3000 nM |
